Laboratory results: patent US20210308289A1, “INACTIVATION OF HIGHLY RESISTANT INFECTIOUS MICROBES AND PROTEINS WITH UNBUFFERED HYPOHALOUS ACID COMPOSITIONS” (BRIOTECH, INC., priority 2016, published 2021)

How the values were obtained:
[1] = in solution; cited from earlier work
[2] = test system: spores of Bacillus subtilis; assay: Inactivation of Bacillus subtilis spores by HOBr and HOCl; assay type: cell-based
[3] = Application to human skin and mucous membranes; conditions: freshly prepared from HOCl containing 200 ppm of Cl
[4] = test system: infectious proteins; assay type: biochemical

Compound	pKa [1]	effect on Bacillus spores ([2]; HOCl 25 ppm, 20 seconds of contact)	LRV ([2]; HOCl 230 ppm, 20 seconds)	LRVs ([2]; HOCl below 230 ppm, 20 seconds)	LRV ([2]; HOBr approximately 25 ppm, 20 seconds)	adverse effects on epithelial surfaces [3]	inactivation of infectious proteins [4]
OCl [HOCl, hypochlorous acid]	about 7.5	no detectable effect	6	2-4			
OBr [HOBr, hypobromous acid]	higher than HOCl				6	without any indication of adverse effects	comparable levels to those achieved using HOCl
